Results as given in ChEMBL document CHEMBL1201862, “PubChem BioAssay data set” (2004).
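Exposure lasted 48 hours, with cells grown in 96-well plates and compounds tested at five concentrations. GI50 is the concentration that inhibits growth by half.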 The source made the active and inactive calls. Cut-off read from the data, not from the text of the source: active = GI50 up to about 1.1 µM and inactive = higher.

Tests used:
Assay in all cases: NCI-60 cell line screen, 48 h
[1] = tested on: A498
[2] = tested on: A549
[3] = tested on: ACHN
[4] = tested on: CAKI-1
[5] = tested on: COLO 205
[6] = tested on: IGROV-1
[7] = tested on: KM12
[8] = tested on: MDA-MB-435
[9] = tested on: MDA-N
[10] = tested on: MOLT-4
[11] = tested on: OVCAR-3
[12] = tested on: PC-3
[13] = tested on: RPMI-8226
[14] = tested on: RXF 393
[15] = tested on: SF-268
[16] = tested on: SN12C
[17] = tested on: SNB-19
[18] = tested on: UACC-257
[19] = tested on: UACC-62
[20] = tested on: XF498

NC1=C(Cl)C(=O)c2ccccc2C1=O
GI50 [1]: 19.9 µM (inactive)
GI50 [2]: 2.93 µM (inactive)
GI50 [3]: 9.27 µM (inactive)
GI50 [4]: 17.3 µM (inactive)
GI50 [5]: 11.3 µM (inactive)
GI50 [6]: 9.82 µM (inactive)
GI50 [7]: 8.05 µM (inactive)
GI50 [8]: 0.8 µM (active)
GI50 [9]: 1.63 µM (inactive)
GI50 [10]: 5.7 µM (inactive)
GI50 [11]: 2.45 µM (inactive)
GI50 [12]: 1.79 µM (inactive)
GI50 [13]: 18.4 µM (inactive)
GI50 [14]: 7.67 µM (inactive)
GI50 [15]: 11.2 µM (inactive)
GI50 [16]: 5.04 µM (inactive)
GI50 [17]: 9.46 µM (inactive)
GI50 [18]: 2.57 µM (inactive)
GI50 [19]: 1.08 µM (active)
GI50 [20]: 11.2 µM (inactive)

COc1ccc(C(O)/C(=C/n2ccnc2)c2ccccc2)cc1OC (stereo not given)
GI50 [1]: > 100 µM (inactive)
GI50 [2]: > 100 µM (inactive)
GI50 [3]: > 100 µM (inactive)
GI50 [5]: > 100 µM (inactive)
GI50 [6]: > 100 µM (inactive)
GI50 [7]: > 100 µM (inactive)
GI50 [10]: > 100 µM (inactive)
GI50 [11]: > 100 µM (inactive)
GI50 [13]: > 100 µM (inactive)
GI50 [14]: > 100 µM (inactive)
GI50 [15]: > 100 µM (inactive)
GI50 [16]: > 100 µM (inactive)
GI50 [17]: > 100 µM (inactive)
GI50 [18]: > 100 µM (inactive)
GI50 [19]: > 100 µM (inactive)
GI50 [20]: > 100 µM (inactive)

C=CCNC(=O)NCCCCC(NC(C)=O)C(=O)NCc1ccccc1 (stereo not given)
GI50 [1]: > 100 µM (inactive)
GI50 [2]: > 100 µM (inactive)
GI50 [3]: > 100 µM (inactive)
GI50 [4]: > 100 µM (inactive)
GI50 [5]: > 100 µM (inactive)
GI50 [6]: > 100 µM (inactive)
GI50 [7]: > 100 µM (inactive)
GI50 [10]: > 100 µM (inactive)
GI50 [11]: > 100 µM (inactive)
GI50 [13]: > 100 µM (inactive)
GI50 [14]: > 100 µM (inactive)
GI50 [15]: > 100 µM (inactive)
GI50 [16]: > 100 µM (inactive)
GI50 [17]: > 100 µM (inactive)
GI50 [18]: > 100 µM (inactive)
GI50 [19]: > 100 µM (inactive)
GI50 [20]: > 100 µM (inactive)

Cc1ccc(C(=O)N2CCN(C(=O)c3ccc(C)cc3)c3ccccc32)cc1
GI50 [1]: 5.2 µM (inactive)
GI50 [2]: 7.48 µM (inactive)
GI50 [3]: 9.59 µM (inactive)
GI50 [4]: 7 µM (inactive)
GI50 [5]: 3.39 µM (inactive)
GI50 [6]: 4.91 µM (inactive)
GI50 [7]: 3.29 µM (inactive)
GI50 [9]: 0.274 µM (active)
GI50 [10]: 3.07 µM (inactive)
GI50 [11]: 2.74 µM (inactive)
GI50 [12]: 2.86 µM (inactive)
GI50 [13]: 3.03 µM (inactive)
GI50 [14]: 2.24 µM (inactive)
GI50 [15]: 6.85 µM (inactive)
GI50 [16]: 6.92 µM (inactive)
GI50 [17]: 5.77 µM (inactive)
GI50 [18]: 4.56 µM (inactive)
GI50 [19]: 2.01 µM (inactive)
GI50 [20]: 4.93 µM (inactive)

CCN(CC)CC(C(=O)Nc1c(C)cccc1C)/C(C)=N\NC(=O)c1ccncc1 (stereo not given)
GI50 [1]: > 100 µM (inactive)
GI50 [2]: > 100 µM (inactive)
GI50 [3]: > 100 µM (inactive)
GI50 [4]: > 100 µM (inactive)
GI50 [5]: > 100 µM (inactive)
GI50 [6]: > 100 µM (inactive)
GI50 [7]: > 100 µM (inactive)
GI50 [10]: > 100 µM (inactive)
GI50 [11]: > 100 µM (inactive)
GI50 [14]: > 100 µM (inactive)
GI50 [15]: > 100 µM (inactive)
GI50 [16]: > 100 µM (inactive)
GI50 [17]: > 100 µM (inactive)
GI50 [18]: > 100 µM (inactive)
GI50 [20]: > 100 µM (inactive)

Cc1ccc(NC(=O)CC/C(CC(=O)C(C)(C)C)=N\NC(=O)C[n+]2ccccc2)cc1C
GI50 [1]: > 100 µM (inactive)
GI50 [2]: > 100 µM (inactive)
GI50 [3]: > 100 µM (inactive)
GI50 [4]: > 100 µM (inactive)
GI50 [5]: > 100 µM (inactive)
GI50 [6]: > 100 µM (inactive)
GI50 [7]: > 100 µM (inactive)
GI50 [10]: 51.2 µM (inactive)
GI50 [11]: > 100 µM (inactive)
GI50 [13]: 87.7 µM (inactive)
GI50 [14]: 68.1 µM (inactive)
GI50 [15]: > 100 µM (inactive)
GI50 [16]: > 100 µM (inactive)
GI50 [17]: > 100 µM (inactive)
GI50 [18]: > 100 µM (inactive)
GI50 [19]: > 100 µM (inactive)
GI50 [20]: 87.7 µM (inactive)

O=C(O)CNS(=O)(=O)c1ccc(NC(=O)CI)cc1
GI50 [1]: > 100 µM (inactive)
GI50 [2]: 91.2 µM (inactive)
GI50 [3]: 52 µM (inactive)
GI50 [4]: 40.7 µM (inactive)
GI50 [5]: 26.2 µM (inactive)
GI50 [6]: 26.5 µM (inactive)
GI50 [7]: 24.8 µM (inactive)
GI50 [10]: 12.1 µM (inactive)
GI50 [11]: 24 µM (inactive)
GI50 [13]: 15.7 µM (inactive)
GI50 [14]: 15.5 µM (inactive)
GI50 [15]: 18.8 µM (inactive)
GI50 [16]: 32.5 µM (inactive)
GI50 [17]: 58.2 µM (inactive)
GI50 [18]: 42.5 µM (inactive)
GI50 [19]: 25.1 µM (inactive)
GI50 [20]: 14.6 µM (inactive)

COP(=O)(OC)C(NC(=O)C(F)(F)F)(c1ccccc1)C(F)(F)F (stereo not given)
GI50 [1]: > 100 µM (inactive)
GI50 [2]: > 100 µM (inactive)
GI50 [3]: > 100 µM (inactive)
GI50 [4]: > 100 µM (inactive)
GI50 [5]: > 100 µM (inactive)
GI50 [6]: > 100 µM (inactive)
GI50 [7]: > 100 µM (inactive)
GI50 [10]: > 100 µM (inactive)
GI50 [11]: > 100 µM (inactive)
GI50 [13]: > 100 µM (inactive)
GI50 [14]: > 100 µM (inactive)
GI50 [15]: > 100 µM (inactive)
GI50 [16]: > 100 µM (inactive)
GI50 [17]: > 100 µM (inactive)
GI50 [18]: > 100 µM (inactive)
GI50 [19]: > 100 µM (inactive)
GI50 [20]: > 100 µM (inactive)

CC(C)(C)CC(C)(C)NCC(O)COc1ccc(C(C)(C)c2ccc(OCC(O)CNC(C)(C)CC(C)(C)C)cc2)cc1 (stereo not given)
GI50 [1]: 1.58 µM (inactive)
GI50 [2]: 1.6 µM (inactive)
GI50 [3]: 1.77 µM (inactive)
GI50 [4]: 1.75 µM (inactive)
GI50 [5]: 0.376 µM (active)
GI50 [6]: 1.77 µM (inactive)
GI50 [7]: 1.56 µM (inactive)
GI50 [10]: 0.34 µM (active)
GI50 [11]: 1.77 µM (inactive)
GI50 [13]: 1.46 µM (inactive)
GI50 [14]: 1.82 µM (inactive)
GI50 [15]: 1.86 µM (inactive)
GI50 [16]: 1.63 µM (inactive)
GI50 [17]: 1.64 µM (inactive)
GI50 [19]: 1.81 µM (inactive)
GI50 [20]: 1.64 µM (inactive)

COC(=O)C1=C(C[S+]([O-])c2ccc([N+](=O)[O-])cc2[N+](=O)[O-])C2C=CC1C2 (stereo not given)
GI50 [1]: > 100 µM (inactive)
GI50 [2]: 57 µM (inactive)
GI50 [3]: 19.8 µM (inactive)
GI50 [4]: 21.1 µM (inactive)
GI50 [5]: 19.2 µM (inactive)
GI50 [6]: 64.9 µM (inactive)
GI50 [7]: 40.3 µM (inactive)
GI50 [10]: 22.2 µM (inactive)
GI50 [11]: 23.1 µM (inactive)
GI50 [13]: 77.1 µM (inactive)
GI50 [14]: 26.2 µM (inactive)
GI50 [15]: 41 µM (inactive)
GI50 [16]: 23.7 µM (inactive)
GI50 [17]: > 100 µM (inactive)
GI50 [18]: 30.2 µM (inactive)
GI50 [19]: 18 µM (inactive)
GI50 [20]: 28.5 µM (inactive)

CC(=O)NC1=C(Nc2ccc(C)cc2)C(=O)c2ccccc2C1=O
GI50 [1]: 50.2 µM (inactive)
GI50 [2]: 14.3 µM (inactive)
GI50 [3]: 17.9 µM (inactive)
GI50 [4]: 43.7 µM (inactive)
GI50 [5]: 18.7 µM (inactive)
GI50 [6]: 17.7 µM (inactive)
GI50 [7]: 24.7 µM (inactive)
GI50 [10]: 16.7 µM (inactive)
GI50 [11]: 16.6 µM (inactive)
GI50 [13]: 11.7 µM (inactive)
GI50 [14]: 23.5 µM (inactive)
GI50 [15]: 26.9 µM (inactive)
GI50 [16]: 15.9 µM (inactive)
GI50 [17]: 29.3 µM (inactive)
GI50 [18]: 18 µM (inactive)
GI50 [19]: 10.9 µM (inactive)
GI50 [20]: 24.9 µM (inactive)

CC(C)(O)C(O)COc1c2c(cc3oc(=O)ccc13)OCO2 (stereo not given)
GI50 [1]: > 100 µM (inactive)
GI50 [2]: > 100 µM (inactive)
GI50 [3]: > 100 µM (inactive)
GI50 [4]: > 100 µM (inactive)
GI50 [5]: > 100 µM (inactive)
GI50 [6]: > 100 µM (inactive)
GI50 [7]: > 100 µM (inactive)
GI50 [10]: > 100 µM (inactive)
GI50 [11]: > 100 µM (inactive)
GI50 [13]: > 100 µM (inactive)
GI50 [14]: > 100 µM (inactive)
GI50 [15]: > 100 µM (inactive)
GI50 [16]: > 100 µM (inactive)
GI50 [17]: > 100 µM (inactive)
GI50 [18]: > 100 µM (inactive)
GI50 [19]: > 100 µM (inactive)
GI50 [20]: > 100 µM (inactive)
